Reference: ChEMBL document CHEMBL5584224, “Recent advances in c-Met-based dual inhibitors in the treatment of cancers” (Eur J Med Chem, 2024)

Tests used:
[1] = target: Fibroblast growth factor receptor 1 (Homo sapiens, UniProt P11362); assay: Inhibition of FGFR1 (unknown origin)
[2] = target: Fibroblast growth factor receptor 2 (Homo sapiens, UniProt P21802); assay: Inhibition of FGFR2 (unknown origin)
[3] = target: Fibroblast growth factor receptor 3 (Homo sapiens, UniProt P22607); assay: Inhibition of FGFR3 (unknown origin)
Chain of Fibroblast growth factor receptor 3 (P22607 whole entry): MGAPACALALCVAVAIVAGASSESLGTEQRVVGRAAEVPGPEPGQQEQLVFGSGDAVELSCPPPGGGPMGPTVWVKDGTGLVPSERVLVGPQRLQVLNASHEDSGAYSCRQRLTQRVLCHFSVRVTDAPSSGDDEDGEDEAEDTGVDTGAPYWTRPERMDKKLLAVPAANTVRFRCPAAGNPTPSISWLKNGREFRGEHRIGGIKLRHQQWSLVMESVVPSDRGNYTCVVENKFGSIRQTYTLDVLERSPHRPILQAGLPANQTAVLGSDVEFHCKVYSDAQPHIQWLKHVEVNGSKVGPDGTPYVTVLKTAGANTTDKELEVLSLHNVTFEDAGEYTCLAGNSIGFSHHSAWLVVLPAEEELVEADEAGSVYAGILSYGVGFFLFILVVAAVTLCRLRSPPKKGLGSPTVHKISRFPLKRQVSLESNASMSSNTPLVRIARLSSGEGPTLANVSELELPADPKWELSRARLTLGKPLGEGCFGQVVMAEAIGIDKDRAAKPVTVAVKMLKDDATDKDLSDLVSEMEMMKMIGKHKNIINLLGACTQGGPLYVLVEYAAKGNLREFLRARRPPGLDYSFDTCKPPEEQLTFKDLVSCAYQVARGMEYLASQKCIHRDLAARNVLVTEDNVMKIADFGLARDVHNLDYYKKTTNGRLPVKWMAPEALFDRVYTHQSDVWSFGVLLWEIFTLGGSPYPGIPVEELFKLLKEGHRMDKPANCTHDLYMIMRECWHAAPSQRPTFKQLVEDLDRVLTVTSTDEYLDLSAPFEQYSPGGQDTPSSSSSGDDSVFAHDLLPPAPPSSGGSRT

HepG2 [4] = assay: Antiproliferative activity against human HepG2 cells assessed as reduction in cell viability incubated for 72 hrs by MTT assay; format: functional, cell-based; conditions: HepG2, 72 h
HepG2 [5] = assay: Antitumor activity against human HepG2 cells xenografted in mouse model assessed as tumor growth inhibition at 16 mg/kg/day for 7 days relative to control; format: functional; design: scale not given: the % may be the effect or the level left; conditions: time 7 day
HepG2 [6] = assay: Antitumor activity against human HepG2 cells xenografted in mouse model assessed as tumor growth inhibition at 48 mg/kg/day for 7 days relative to control; format: functional; design: scale not given: the % may be the effect or the level left; conditions: time 7 day

Chain of Fibroblast growth factor receptor 1 (P11362 whole entry): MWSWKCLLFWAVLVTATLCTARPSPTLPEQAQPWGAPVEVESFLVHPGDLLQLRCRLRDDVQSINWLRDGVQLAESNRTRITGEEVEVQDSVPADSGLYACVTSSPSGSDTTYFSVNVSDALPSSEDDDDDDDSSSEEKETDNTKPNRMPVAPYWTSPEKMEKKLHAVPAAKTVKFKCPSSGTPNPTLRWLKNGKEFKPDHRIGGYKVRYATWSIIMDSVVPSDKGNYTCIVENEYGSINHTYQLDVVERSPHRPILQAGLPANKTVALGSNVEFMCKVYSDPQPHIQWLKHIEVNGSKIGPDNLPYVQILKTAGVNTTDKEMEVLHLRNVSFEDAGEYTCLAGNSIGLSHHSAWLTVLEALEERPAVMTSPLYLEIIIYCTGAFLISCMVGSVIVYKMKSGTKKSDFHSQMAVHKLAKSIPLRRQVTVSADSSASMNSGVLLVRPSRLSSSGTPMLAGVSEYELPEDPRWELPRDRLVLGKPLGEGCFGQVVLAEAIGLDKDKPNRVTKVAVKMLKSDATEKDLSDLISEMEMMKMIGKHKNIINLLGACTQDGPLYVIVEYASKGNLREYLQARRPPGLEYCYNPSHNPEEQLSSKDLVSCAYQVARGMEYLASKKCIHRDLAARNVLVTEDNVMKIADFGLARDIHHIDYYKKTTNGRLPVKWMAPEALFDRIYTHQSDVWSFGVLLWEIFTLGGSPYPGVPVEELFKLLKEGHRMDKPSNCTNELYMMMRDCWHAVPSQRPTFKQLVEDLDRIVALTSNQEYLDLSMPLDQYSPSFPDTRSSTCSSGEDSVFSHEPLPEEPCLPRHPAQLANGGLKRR
Chain of Fibroblast growth factor receptor 2 (P21802 whole entry): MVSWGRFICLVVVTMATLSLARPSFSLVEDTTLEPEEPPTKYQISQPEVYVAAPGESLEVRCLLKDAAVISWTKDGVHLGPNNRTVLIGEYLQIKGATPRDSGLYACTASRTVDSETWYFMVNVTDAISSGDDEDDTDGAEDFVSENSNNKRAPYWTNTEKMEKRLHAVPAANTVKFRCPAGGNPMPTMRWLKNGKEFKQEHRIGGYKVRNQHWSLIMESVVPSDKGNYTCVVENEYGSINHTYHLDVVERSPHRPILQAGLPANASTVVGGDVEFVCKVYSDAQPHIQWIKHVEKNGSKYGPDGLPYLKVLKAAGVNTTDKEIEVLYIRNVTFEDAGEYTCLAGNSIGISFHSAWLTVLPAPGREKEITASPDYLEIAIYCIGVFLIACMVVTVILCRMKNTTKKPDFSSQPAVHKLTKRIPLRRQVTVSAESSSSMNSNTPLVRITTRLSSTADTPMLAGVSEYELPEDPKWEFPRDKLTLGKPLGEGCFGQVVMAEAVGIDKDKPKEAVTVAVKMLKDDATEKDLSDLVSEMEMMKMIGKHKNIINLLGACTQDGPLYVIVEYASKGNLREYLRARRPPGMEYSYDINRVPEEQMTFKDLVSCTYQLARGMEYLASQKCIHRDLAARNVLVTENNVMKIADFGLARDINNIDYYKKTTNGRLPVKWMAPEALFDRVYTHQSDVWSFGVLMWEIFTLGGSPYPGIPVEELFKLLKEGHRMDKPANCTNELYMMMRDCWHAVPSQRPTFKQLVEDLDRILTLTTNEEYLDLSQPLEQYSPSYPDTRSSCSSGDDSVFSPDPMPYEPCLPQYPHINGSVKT

Row | IC50 [1] | IC50 [2] | IC50 [3] | IC50 (HepG2 [4]) | Structure (SMILES) | Activity (HepG2 [5]) | Activity (HepG2 [6])
1 | 18 nM | 17 nM | 15 nM |  | O=C1Nc2ccc(CN3C(=O)CSC3=O)cc2/C1=C/c1cc(CN2CCOCC2)c[nH]1 |  | 
2 |  |  |  | 1460 nM | Cc1ccccc1NS(=O)(=O)c1ccc2c(c1)/C(=C/c1nc3ccccc3[nH]1)C(=O)N2.Cl | 65.2% | 65.2%
